This is an account of results in article PMC11191877, “Discovery of new Schiff bases of the disalicylic acid scaffold as DNA gyrase and topoisomerase IV inhibitors endowed with antibacterial properties” (Frontiers in Chemistry, 2024).

Assay [1] has as its system Bacillus subtilis. The assay is described as follows: Modified Kirby-Bauer disc diffusion. Conditions: Bacillus subtilis (G+). Type of assay: cell-based. How it is done:
(§1) The antimicrobial activity of compounds 5a-k was assessed using a modified Kirby-Bauer disc diffusion method ([Alkhaldi et al., 2019]; [Al-Wahaibi et al., 2021b]; [Manso et al., 2021]; [Ecevit et al., 2022]). […] Ciprofloxacin was used as a reference medication. […] Compounds 5f-k had promising antibacterial action against Gram-positive and Gram-negative bacteria, ranging from 75% to 115% of typical ciprofloxacin levels. […]
(§2) incubated at 35-37 °C for 24-48 hours and yeast as Candida albicans (ATCC 7102) incubated at 30 °C for 24-48 hours and, then the diameters of the inhibition zones were measured in millimeters. Standard discs of ciprofloxacin (Antibacterial agent), Fluconazole (Antifungal agent) served as positive controls for antimicrobial activity but filter discs impregnated with 10 µl of solvent (distilled water, chloroform, DMSO) were used as a negative control. Blank paper disks (Schleicher & Schuell, Spain) with a diameter of 8.0 mm were impregnated 10µ of tested concentration of the stock solutions. When a filter paper disc impregnated with a tested chemical is placed on agar the chemical will diffuse from the disc into the agar. This diffusion will place the chemical in the agar only around the disc. The solubility of the chemical and its molecular size will determine the size of the area of chemical infiltration around the disc. If an organism is placed on the agar it will not grow in the area around the disc if it is susceptible to the chemical. This area of no growth around the disc is known as a “Zone of inhibition” or" Clear zone". For the disc diffusion, the zone diameters were measured with slipping calipers of the National Committee for Clinical Laboratory […]
(§3) Agar-based methods such as E-test and disk diffusion can be good alternatives because they are simpler and faster than broth-based methods. […]

The subject of assay [2] is Escherichia Coli. Briefly: Modified Kirby-Bauer disc diffusion. Type of assay: cell-based. The note with it: Escherichia Coli (G−). How it is done: as §1, §2, §3
(Agar diffusion results depend on both activity and mobility in agar.)

The test system of assay [3] is Pseudomonas aeruginosa. The assay is described as follows: Modified Kirby-Bauer disc diffusion. The note with it: Pseudomonas aeruginosa (G−). Format: cell-based. How it is done:
as §1, §2, §3

The subject of a further assay is Staph. aureus. The assay is described as follows: Modified Kirby-Bauer disc diffusion. Type of assay: cell-based, Staphylococcus aureus. Conditions: Staph. aureus (G+). The protocol:
as §1, §2, §3

Assay [4] has as its system Bacillus subtilis. Briefly: MIC, twofold serial dilution, 96-well microtiter plate. The note with it: Bacillus subtilis (G+); read-out: Minimum inhibitory concentration (MIC). Type of assay: cell-based. How it is done:
(§4) The antibacterial activity of compounds 5f, 5h, 5i, and 5k were evaluated using a twofold serial dilution method ([Parasa et al., 2011]), with ciprofloxacin as the reference compound. The MIC values for certain compounds were obtained through dose-response experiments. The stated values are based on a minimum of two independent experiments, with three replicates per concentration in each experiment. The experimental details can be found in Appendix A (Supplementary Material). […]
(§5) 4.2.2. Minimum inhibitory concentration assay
(§6) In 96-well microtiter plates and […] of fresh bacterial culture of a single McFarland unit overnight, a double serial dilution of each compound […] in sterile standard saline were prepared to every single source well. Ciprofloxacin antibiotic (5 mg / mL - 1) and normal saline were included as standard reference in each assay. The plates were incubated at 37 0C overnight. As an indicator of bacterial growth, […] of p-iodonitrotetrazolium violet (INT) was added to each well and incubated at 37 0C for 30 […]
(§7) min. MIC values are recorded as the lowest concentration of the extract that completely inhibited bacterial growth that is clear well. The colorless tetrazolidium salt acts as an electron accepter and is reduced to a red colored formazan product by biological activity organisms. Where bacterial growth was inhibited, the solution in the well remained clear after incubation with INT. […]
(§8) SybrGOLD in T10 buffer (10 mM Tris HCl with pH 8.0 and 1 mM EDTA) was added. […]

The subject of assay [5] is Escherichia Coli. The assay is described as above. Format: cell-based. The note with it: Escherichia coli (G−); read-out: Minimum inhibitory concentration (MIC). How it is done: as §4, §5, §6, §7, §8
Assay [6] has as its system Pseudomonas aeruginosa. The description is as above. The note with it: Pseudomonas aeruginosa (G−); read-out: Minimum inhibitory concentration (MIC). Type of assay: cell-based. How it is done:
as §4, §5, §6, §7, §8

The next assay has as its system Staphylococcus aureus. Described as above. The note with it: Staphylococcus aureus (G+); read-out: Minimum inhibitory concentration (MIC). Type of assay: cell-based. How it is done:
as §4, §5, §6, §7, §8

A further assay deals with Aspergillus flavus. Briefly: Modified Kirby-Bauer disc diffusion (antifungal). Format: cell-based. The note with it: Aspergillus flavus (fungi). How it is done: (§9) The antimicrobial activity of compounds 5a-k was assessed using a modified Kirby-Bauer disc diffusion method ([Alkhaldi et al., 2019]; [Al-Wahaibi et al., 2021b]; [Manso et al., 2021]; [Ecevit et al., 2022]). […] Ciprofloxacin was used as a reference medication. […] Compounds 5f-k had promising antibacterial action against Gram-positive and Gram-negative bacteria, ranging from 75% to 115% of typical ciprofloxacin levels.
(§10) In addition, the synthesized compounds 5a-k were evaluated for their antifungal activity against A. flavus and C. albicans, with Fluconazole as a reference medication (Table 1). […]
Standard discs of ciprofloxacin (Antibacterial agent), Fluconazole (Antifungal agent) served as positive controls for antimicrobial activity but filter discs impregnated with 10 µl of solvent (distilled water, chloroform, DMSO) were used as a negative control. Blank paper disks (Schleicher & Schuell, Spain) with a diameter of 8.0 mm were impregnated 10µ of tested concentration of the stock solutions. When a filter paper disc impregnated with a tested chemical is placed on agar the chemical will diffuse from the disc into the agar. This diffusion will place the chemical in the agar only around the disc. The solubility of the chemical and its molecular size will determine the size of the area of chemical infiltration around the disc. If an organism is placed on the agar it will not grow in the area around the disc if it is susceptible to the chemical. This area of no growth around the disc is known as a “Zone of inhibition” or" Clear zone". For the disc diffusion, the zone diameters were measured with slipping calipers of the National Committee for Clinical Laboratory […]
as §3

The next assay has as its system Candida albicans. The assay is described as follows: Modified Kirby-Bauer disc diffusion (antifungal). Type of assay: cell-based. The note with it: Candida albicans (fungi). The protocol: as §9, §10, §2, §3
In another assay the test system is M. tuberculosis H37Rv. The arrangement: method as in Abdu-Allah et al., 2017. Conditions: ref Abdu-Allah et al., 2017; cited from earlier work.
Another assay concerns mycobacterium. Also on record: method as in Abdu-Allah et al., 2017. Conditions: nutrition starvation paradigm, 10 μg/mL; ref Abdu-Allah et al., 2017; cited from earlier work.
The next assay deals with B. subtilis. The arrangement: method as in Shi et al., 2007. The note with it: ref Shi et al., 2007; cited from earlier work.
In a further assay the test system is P. fluorescence. The arrangement: method as in Shi et al., 2007. Conditions: ref Shi et al., 2007; cited from earlier work.
A further assay deals with E. Coli. Also on record: method as in Shi et al., 2007. Conditions: ref Shi et al., 2007; cited from earlier work.
Assay [7] relates to E. coli b-Ketoacyl-acyl carrier protein synthase III (ecKAS III). The arrangement: method as in Cheng et al., 2010. Conditions: ref Cheng et al., 2010; cited from earlier work.
The test system of assay [8] is DNA methyltransferases (DNMTs). The arrangement: method as in Leroy et al., 2019. Conditions: ref Leroy et al., 2019; cited from earlier work.
For assay [9], the target named is S. aureus topoisomerase IV. Conditions: read-out: IC50 S. aureus topoisomerase IV; internal standard value stated in the supplementary method; cited from earlier work.

Values after ≈ are worked out from the molar mass of the structure shown.

For `O=C(O)c1cn(C2CC2)c2cc(N3CCNCC3)c(F)cc2c1=O` [Ciprofloxacin, reference compound], the Inhibition zone diameter in the assay with Bacillus subtilis [1], with Escherichia Coli [2], in the assay on Pseudomonas aeruginosa [3] and with Staph. aureus was 40 mm/mg Sample in each case. Further, the MIC with Bacillus subtilis [4] stood at 0.01 µg/mL (≈ 0.0302 µM); in the assay with Escherichia Coli [5] it was 0.06 µg/mL (≈ 0.181 µM); in the assay with Pseudomonas aeruginosa [6], 0.06 µg/mL (≈ 0.181 µM); with Staphylococcus aureus it was 0.03 µg/mL (≈ 0.0905 µM).

For the molecule `OC(Cn1cncn1)(Cn1cncn1)c1ccc(F)cc1F` [Fluconazole, reference compound], the Inhibition zone diameter in the assay on Aspergillus flavus and in the assay on Candida albicans was 40 mm/mg Sample in each case.

Consider `O=C(N/N=C1\C(=O)N(Cc2ccc(Cl)cc2)c2ccccc21)c1cc(-n2cc(-c3ccccc3)nn2)ccc1O` [III], for which the MIC in the assay with M. tuberculosis H37Rv was 0.39 µg/mL (≈ 0.71 µM). In addition, the “reduction of bacterial count” value with mycobacterium was 2.4 logs.

With `CC(C/N=C/c1cc(Cl)ccc1O)C/N=C/c1cc(Cl)ccc1O` [II], the results for the MIC in the assay on B. subtilis, in the assay with P. fluorescence and with E. Coli were 1.8 µg/mL (≈ 4.93 µM), 3.6 µg/mL (≈ 9.86 µM) and 4.9 µg/mL (≈ 13.4 µM), respectively.

Consider `CC(CNC(=O)c1ccccc1O)/N=C/c1cc(Cl)cc(Cl)c1O` (stereo not drawn) [IV], for which the “inhibitory activity against ecKAS III” value in assay [7] is reported as “potent inhibitory activity”.

In the case of `NC[C@H]1O[C@H](O[C@H]2[C@H](O)[C@@H](O[C@H]3O[C@H](CO)[C@@H](O)[C@H](N)[C@H]3O)[C@H](N)C[C@@H]2N)[C@H](O)[C@@H](O)[C@@H]1O` [Kanamycin], the MIC is 0.39 µg/mL (≈ 0.805 µM) in the assay with B. subtilis, 3.9 µg/mL (≈ 8.05 µM) in the assay on P. fluorescence and 3.9 µg/mL (≈ 8.05 µM) in the assay on E. Coli.

Consider `O=C(O)c1cc(Cc2ccc(O)c(C(=O)O)c2)ccc1O` [NSC 14778, disalicylic acid methylene], for which the “inhibitory activity on DNMTs” value in assay [8] is given as “within the micromolar range”.

The term IC50 denotes the point on the concentration scale where inhibition reaches its midpoint. Turning to `CO[C@@H]1[C@@H](OC(N)=O)[C@@H](O)[C@H](Oc2ccc3c(O)c(NC(=O)c4ccc(O)c(CC=C(C)C)c4)c(=O)oc3c2C)OC1(C)C` [Novobiocin], the IC50 in assay [9] was 26.7 µM.

On to “N'-((E)-2-Chlorobenzylidene)-4-(4-(2-((Z)-2-chlorobenzylidene)hydrazine-1-carbonyl)-3-hydroxybenzyl)-2-hydroxybenzohydrazide [Compound 5e]”, for which the Inhibition zone diameter in the assay on Bacillus subtilis [1] is 27 mm/mg Sample; with Escherichia Coli [2], 28 mm/mg Sample; in the assay with Pseudomonas aeruginosa [3] it was 28 mm/mg Sample; in the assay with Staph. aureus it was 30 mm/mg Sample; with Aspergillus flavus, 0.0 mm/mg Sample; with Candida albicans, 12 mm/mg Sample.

In the case of “N'-((E)-4-Bromobenzylidene)-4-(4-(2-((Z)-4-bromobenzylidene)hydrazine-1-carbonyl)-3-hydroxybenzyl)-2-hydroxybenzohydrazide [Compound 5d]”, the Inhibition zone diameter turned out to be 28 mm/mg Sample in the assay on Bacillus subtilis [1]; 30 mm/mg Sample in the assay on Escherichia Coli [2]; 26 mm/mg Sample in the assay on Pseudomonas aeruginosa [3]; 31 mm/mg Sample in the assay with Staph. aureus; 0.0 mm/mg Sample in the assay on Aspergillus flavus; 10 mm/mg Sample in the assay on Candida albicans.

Consider “N'-((E)-4-Chlorobenzylidene)-4-(4-(2-((Z)-4-chlorobenzylidene)hydrazine-1-carbonyl)-3-hydroxybenzyl)-2-hydroxybenzohydrazide [Compound 5b]”, for which the Inhibition zone diameter with Bacillus subtilis [1] worked out at 26 mm/mg Sample; with Escherichia Coli [2], 26 mm/mg Sample; with Pseudomonas aeruginosa [3], 26 mm/mg Sample; with Staph. aureus, 27 mm/mg Sample; in the assay on Aspergillus flavus, 0.0 mm/mg Sample; in the assay on Candida albicans, 7 mm/mg Sample.

“N'-((E)-4-Methoxybenzylidene)-4-(4-(2-((Z)-4-methoxybenzylidene)hydrazine-1-carbonyl)-3-hydroxybenzyl)-2-hydroxybenzohydrazide [Compound 5j]”: the Inhibition zone diameter was 31 mm/mg Sample in the assay on Bacillus subtilis [1]; 30 mm/mg Sample in the assay on Escherichia Coli [2]; 30 mm/mg Sample in the assay on Pseudomonas aeruginosa [3]; 33 mm/mg Sample with Staph. aureus; 0.0 mm/mg Sample in the assay on Aspergillus flavus; 0.0 mm/mg Sample with Candida albicans.

As to “N'-((E)-4-Nitrobenzylidene)-4-(4-(2-((Z)-4-nitrobenzylidene)hydrazine-1-carbonyl)-3-hydroxybenzyl)-2-hydroxybenzohydrazide [Compound 5c]”, the Inhibition zone diameter with Bacillus subtilis [1] was 26 mm/mg Sample; in the assay on Escherichia Coli [2], 27 mm/mg Sample; in the assay with Pseudomonas aeruginosa [3], 25 mm/mg Sample; with Staph. aureus it was 27 mm/mg Sample; in the assay on Aspergillus flavus, 0.0 mm/mg Sample; in the assay with Candida albicans it was 11 mm/mg Sample.

Turning to “N'-((E)-Benzylidene)-4-(4-(2-((Z)-benzylidene)hydrazine-1-carbonyl)-3-hydroxy benzyl)-2-hydroxybenzohydrazide [Compound 5a]”, the Inhibition zone diameter amounted to 21 mm/mg Sample in the assay on Bacillus subtilis [1]; 24 mm/mg Sample in the assay with Escherichia Coli [2]; 21 mm/mg Sample in the assay with Pseudomonas aeruginosa [3]; 25 mm/mg Sample in the assay on Staph. aureus; 0.0 mm/mg Sample with Aspergillus flavus; 0.0 mm/mg Sample in the assay on Candida albicans.
